# Read-outs that look alike come from different tables or passages of the source.
# Columns and labels:
# [1] = target: T1, human Cot catalytic domain (30-397 amino acids) (Homo sapiens, UniProt P41279); experiment: High Throughput Cot Biochemical Assay (KinEASE TR-FRET); conditions: Cot KinEASE TR-FRET (HTRF) biochemical assay, 400 μM ATP; read-out: IC50 HTRF
# T1 construct: Purified recombinant human Cot catalytic domain (30-397 amino acids) was purchased from Cama Biosciences; purchased Cama Biosciences (so in the source)
# In short: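 TR-FRET readout: Eu-labeled phospho-specific antibody binds XL665-tagged STK3 peptide after phosphorylation by Cot (aa 30-397, 5 nM). Conditions: 400 μM ATP, 1 μM peptide, MOPS pH 7.0 buffer with MgOAc, DTT, BSA, NP-40, glycerol; 0.1% DMSO.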
# [2] = system: TNFα production in LPS-stimulated human monocytes; experiment: Cot Monocyte TNFα Cell Based Assay; conditions: Homo sapiens, Monocyte, read-out: EC50 TNF
# In short: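 TR-FRET read-out of total secreted TNFα, normalized as % control (unstimulated = 0%, LPS-stimulated = 100%). Cells (5,000/well) were exposed to compound 1 h at 37 °C, then to 50 pg/ml LPS for a further 4 h.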
# [3] = TNFα in LPS-stimulated human monocytes
# T1 sequence (P41279 30-397): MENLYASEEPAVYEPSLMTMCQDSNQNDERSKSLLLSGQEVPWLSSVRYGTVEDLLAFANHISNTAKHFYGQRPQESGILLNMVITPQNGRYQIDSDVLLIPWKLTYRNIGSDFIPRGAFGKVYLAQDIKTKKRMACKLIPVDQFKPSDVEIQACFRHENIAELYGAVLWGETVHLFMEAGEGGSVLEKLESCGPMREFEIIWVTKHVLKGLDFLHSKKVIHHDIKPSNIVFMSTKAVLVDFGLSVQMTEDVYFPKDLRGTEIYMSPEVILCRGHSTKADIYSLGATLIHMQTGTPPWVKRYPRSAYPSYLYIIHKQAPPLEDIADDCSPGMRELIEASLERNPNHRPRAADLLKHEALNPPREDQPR
structure (smiles),measurement,setting,value
"CC[C@@H](Nc1c(C#N)cnc2c(Cl)cc(N[C@H](c3cn(C4CC4)nn3)c3cc(C#N)ccc3Cl)cc12)c1ccccc1 [Example 258, 8-chloro-6-(((S)-(2-chloro-5-cyanophenyl)(1-cyclopropyl-1H-1,2,3-triazol-4-yl)methyl)amino)-4-(((R)-1-phenylpropyl)amino)quinoline-3-carbonitrile]",IC50,[1],44 nM
same,EC50,[2]; [3],651 nM
"[2H][C@](Nc1cc(Cl)c2ncc(C#N)c(N[C@H](CCO)c3ccccc3)c2c1)(c1cccc(C#N)c1)c1cn(C2CC2)nn1 [Example 259, 8-chloro-6-(((3-cyanophenyl)(1-cyclopropyl-1H-1,2,3-triazol-4-yl)methyl-d)amino)-4-(((R)-3-hydroxy-1-phenylpropyl)amino)quinoline-3-carbonitrile]",IC50,[1],5 nM
same,EC50,[2]; [3],87 nM
"[2H][C@](Nc1cc(Cl)c2ncc(C#N)c(NCC3(C4CC4)CCC3)c2c1)(c1ccc(F)cc1)c1cn(C2CC2)nn1 [Example 260, (S)-8-chloro-6-(((1-cyclopropyl-1H-1,2,3-triazol-4-yl)(4-fluorophenyl)methyl-d)amino)-4-(((1-cyclopropylcyclobutyl)methyl)amino)quinoline-3-carbonitrile]",IC50,[1],33 nM
same,EC50,[2]; [3],584 nM
"[2H][C@](Nc1cc(Cl)c2ncc(C#N)c(NC[Si](C)(C)C)c2c1)(c1ccc(F)cc1)c1cn(C2CC2)nn1 [Example 262, (S)-8-chloro-6-(((1-cyclopropyl-1H-1,2,3-triazol-4-yl)(4-fluorophenyl)methyl-d)amino)-4-(((trimethylsilyl)methyl)amino) quinoline-3-carbonitrile]",IC50,[1],10 nM
same,EC50,[2],259 nM
"[2H]C(Nc1cc(Cl)c2ncc(C#N)c(NCC(C)(C)C)c2c1)(c1ccc(F)cc1)c1nnnn1Cc1ccc(OC)cc1 (stereo not shown) [Example 263, 8-chloro-6-(((4-fluorophenyl) (1-(4-methoxybenzyl)-1H-tetrazol-5-yl)methyl-d)amino)-4-(neopentylamino)quinoline-3-carbonitrile]",IC50,[1],733 nM
same,EC50,[2]; [3],> 10000 nM
"N#Cc1cnc2c(Cl)cc(N[C@@H](c3cccc(C(F)(F)F)c3)c3cn(C4CC4)nn3)cc2c1Nc1cnc(F)c(F)c1 [Example 264, (S)-8-chloro-6-(((1-cyclopropyl-1H-1,2,3-triazol-4-yl)(3-(trifluoromethyl)phenyl)methyl)amino)-4-((5,6-difluoropyridin-3-yl)amino)quinoline-3-carbonitrile]",IC50,[1],45 nM
same,EC50,[2]; [3],567 nM
"N#Cc1cnc2c(Cl)cc(N[C@@H](c3cccc(F)c3)c3cn(C4CC4)nn3)cc2c1Nc1cnc(F)c(F)c1 [Example 265, (S)-8-chloro-6-(((1-cyclopropyl-1H-1,2,3-triazol-4-yl)(3-fluorophenyl)methyl)amino)-4-((5,6-difluoropyridin-3-yl)amino)quinoline-3-carbonitrile]",IC50,[1],12 nM
same,EC50,[2]; [3],471 nM
"N#Cc1cnc2c(Cl)cc(N[C@@H](c3cccc(Cl)c3)c3cn(C4CC4)nn3)cc2c1Nc1cnc(F)c(F)c1 [Example 266, (S)-8-chloro-6-(((3-chlorophenyl)(1-cyclopropyl-1H-1,2,3-triazol-4-yl)methyl)amino)-4-((5,6-difluoropyridin-3-yl)amino)quinoline-3-carbonitrile]",IC50,[1],16 nM
same,EC50,[2]; [3],424 nM
"[2H][C@](Nc1cc(Cl)c2ncc(C#N)c(NC(CC#N)c3ccccc3)c2c1)(c1ccc(F)cc1)c1cn(-c2cccnc2)nn1 (stereo partly drawn) [Example 267, 8-chloro-4-((2-cyano-1-phenylethyl)amino)-6-(((S)-(4-fluorophenyl)(1-(pyridin-3-yl)-1H-1,2,3-triazol-4-yl)methyl-d)amino)quinoline-3-carbonitrile]",IC50,[1],7 nM
same,EC50,[2]; [3],194 nM
"[2H][C@](Nc1cc(Cl)c2ncc(C#N)c(NCCC(C)C)c2c1)(c1ccc(F)cc1)c1cn(C2CC2)nn1 [Example 268, (S)-8-chloro-6-(((1-cyclopropyl-1H-1,2,3-triazol-4-yl)(4-fluorophenyl)methyl-d)amino)-4-(isopentylamino)quinoline-3-carbonitrile]",IC50,[1],166 nM
same,EC50,[2]; [3],2890 nM
"[2H][C@](Nc1cc(Cl)c2ncc(C#N)c(NCCC3CC3)c2c1)(c1ccc(F)cc1)c1cn(C2CC2)nn1 [Example 269, (S)-8-chloro-6-(((1-cyclopropyl-1H-1,2,3-triazol-4-yl)(4-fluorophenyl)methyl-d)amino)-4-((2-cyclopropylethyl)amino)quinoline-3-carbonitrile]",IC50,[1],253 nM
same,EC50,[2]; [3],4520 nM
"[2H][C@](Nc1cc(Cl)c2ncc(C#N)c(NCCc3ccccn3)c2c1)(c1ccc(F)cc1)c1cn(C2CC2)nn1 [Example 270, (S)-8-chloro-6-(((1-cyclopropyl-1H-1,2,3-triazol-4-yl)(4-fluorophenyl)methyl-d)amino)-4-((2-(pyridin-2-yl)ethyl)amino)quinoline-3-carbonitrile]",IC50,[1],96 nM
same,EC50,[2]; [3],2280 nM
"[2H][C@](Nc1cc(Cl)c2ncc(C#N)c(NCCc3cccnc3)c2c1)(c1ccc(F)cc1)c1cn(C2CC2)nn1 [Example 271, (S)-8-chloro-6-(((1-cyclopropyl-1H-1,2,3-triazol-4-yl)(4-fluorophenyl)methyl-d)amino)-4-((2-(pyridin-3-yl)ethyl)amino)quinoline-3-carbonitrile]",IC50,[1],434 nM
same,EC50,[2]; [3],4560 nM
"CC[C@@H](Nc1c(C#N)cnc2c(Cl)cc(N[C@@H](c3cccc(F)c3)c3cn(C4CC4)nn3)cc12)c1ccccc1 [Example 272, 8-chloro-6-(((S)-(1-cyclopropyl-1H-1,2,3-triazol-4-yl)(3-fluorophenyl)methyl)amino)-4-(((R)-1-phenylpropyl)amino)quinoline-3-carbonitrile]",IC50,[1],12 nM
same,EC50,[2]; [3],215 nM
"CC[C@@H](Nc1c(C#N)cnc2c(Cl)cc(N[C@@H](c3cccc(Cl)c3)c3cn(C4CC4)nn3)cc12)c1ccccc1 [Example 273, 8-chloro-6-(((S)-(3-chlorophenyl)(1-cyclopropyl-1H-1,2,3-triazol-4-yl)methyl)amino)-4-(((R)-1-phenylpropyl)amino)quinoline-3-carbonitrile]",IC50,[1],13 nM
same,EC50,[2]; [3],178 nM
"[2H][C@](Nc1cc(Cl)c2ncc(C#N)c(Nc3cccc(Cl)c3)c2c1)(c1cccc(C#N)c1)c1cn(C2CC2)nn1 [Example 274, (S)-8-chloro-4-((3-chlorophenyl)amino)-6-(((3-cyanophenyl)(1-cyclopropyl-1H-1,2,3-triazol-4-yl)methyl-d)amino)quinoline-3-carbonitrile]",IC50,[1],5 nM
same,EC50,[2]; [3],254 nM
"[2H][C@](Nc1cc(Cl)c2ncc(C#N)c(Nc3c(F)ccc(Cl)c3F)c2c1)(c1cccc(C#N)c1)c1cn(C2CC2)nn1 [Example 275, (S)-8-chloro-4-((3-chloro-2,6-difluorophenyl)amino)-6-(((3-cyanophenyl)(1-cyclopropyl-1H-1,2,3-triazol-4-yl)methyl-d)amino)quinoline-3-carbonitrile]",IC50,[1],23 nM
same,EC50,[2]; [3],246 nM
"[2H][C@](Nc1cc(Cl)c2ncc(C#N)c(NCC3(C)CCC3)c2c1)(c1cccc(C#N)c1)c1cn(C2CC2)nn1 [Example 276, (S)-8-chloro-6-(((3-cyanophenyl)(1-cyclopropyl-1H-1,2,3-triazol-4-yl)methyl-d)amino)-4-(((1-methylcyclobutyl)methyl)amino) quinoline-3-carbonitrile]",IC50,[1],3 nM
same,EC50,[2]; [3],166 nM
"[2H][C@@](Nc1cc(Cl)c2ncc(C#N)c(NC3CC4CCC3CC4)c2c1)(c1ccc(F)cc1)c1cn(C2CC2)nn1 (stereo partly drawn) [Example 277, 4-(((1s,4s)-bicyclo[2.2.2]octan-2-yl)amino)-8-chloro-6-(((S)-(1-cyclopropyl-1H-1,2,3-triazol-4-yl)(4-fluorophenyl)methyl-d)amino)quinoline-3-carbonitrile]",IC50,[1],32 nM
same,EC50,[2]; [3],858 nM
"[2H][C@](Nc1cc(Cl)c2ncc(C#N)c(N)c2c1)(c1ccc(F)cc1)c1cn(C2CC2)nn1 [Example 279, 4-amino-8-chloro-6-(((S)-(1-cyclopropyl-1H-1,2,3-triazol-4-yl)(4-fluorophenyl)methyl-d)amino)quinoline-3-carbonitrile]",IC50,[1],3050 nM
same,EC50,[2]; [3],8200 nM
"[2H][C@](Nc1cc(Cl)c2ncc(C#N)c(NOC(C)(C)C)c2c1)(c1ccc(F)cc1)c1cn(C2CC2)nn1 [Example 280, (S)-4-(tert-butoxyamino)-8-chloro-6-(((1-cyclopropyl-1H-1,2,3-triazol-4-yl)(4-fluorophenyl)methyl-d)amino)quinoline-3-carbonitrile]",IC50,[1],228 nM
same,EC50,[2]; [3],1470 nM
"[2H][C@](Nc1cc(Cl)c2ncc(C#N)c(N[C@H](CC)c3cccc(C)c3)c2c1)(c1ccc(F)cc1)c1cn(C2CC2)nn1 [Example 281, 8-chloro-6-(((S)-(1-cyclopropyl-1H-1,2,3-triazol-4-yl)(4-fluorophenyl)methyl-d)amino)-4-(((R)-1-(m-tolyl)propyl)amino)quinoline-3-carbonitrile]",IC50,[1],68 nM
same,EC50,[2]; [3],1040 nM
"[2H][C@](Nc1cc(Cl)c2ncc(C#N)c(NC(C)(C)CC)c2c1)(c1ccc(F)cc1)c1cn(C2CC2)nn1 [Example 282, (S)-8-chloro-6-(((1-cyclopropyl-1H-1,2,3-triazol-4-yl)(4-fluorophenyl)methyl-d)amino)-4-(tert-pentylamino) quinoline-3-carbonitrile]",IC50,[1],39 nM
same,EC50,[2]; [3],525 nM

# — patent US10316017B2, “COT modulators and methods of use thereof” (Gilead Sciences, Inc., priority 2015, dated 2019)
